Where two headings read alike, the source gives them in different places.
Tests used:
Wiga Wistar rats = assay: Reversal of LY-404039-induced decrease of palpebral opening in apomorphine-challenged rats; format: in vivo; conditions: Rattus norvegicus, PO, criterion: cumulative palpebral opening score >26, read-out: ED50 APO LY-404039
Procedure: B) In Vivo Pharmacology 1) Reversal of LY-404039-induced Decrease of Palpebral Opening in Apomorphine-challenged Rats.
Male Wiga Wistar rats (Crl:WI; Charles River Germany; 220±40 g) were housed under standard laboratory conditions (21±2° C.; 50-65% relative humidity; light-dark cycle set at 12 h; lights on at 6.00 h) and fasted overnight prior to the start of the experiments (tap water remained available ad libitum). During the test period, they were housed in individual cages. Palpebral opening was scored every 5 min over the first hour after injection of apomorphine (1.0 mg/kg, i.v.) in animals either pretreated or not pretreated with LY-404039 (2.5 mg/kg, s.c.) at 1 h prior to the apomorphine injection. The animals were also pretreated with test compound or solvent at a predefined interval before apomorphine challenge. The score system was: (5) exophthalmos, (4) wide open, (3) open for three-quarters, (2) half open, (1) open for one-quarter, (0) closed. The scores for palpebral opening were cumulated over the 60-min observation period. A cumulative palpebral opening score>26 was selected for drug-induced reversal of the LY-404039-induced decrease of palpebral opening (occurrence in 3.2% of control animals pretreated with LY-404039 (n=154) versus in 99.5% of control rats not pretreated with LY-404039 (n=6335)). […]

rats = assay: Reversal of the effect of the mGluR2 PAM JNJ-42153605-induced inhibition of scopolamine-induced hyperlocomotion; format: in vivo; conditions: Rattus norvegicus, PO
Procedure: 2) Reversal of the Effect of the mGluR2 PAM JNJ-42153605-induced Inhibition of Scopolamine-induced Hyperlocomotion Apparatus
Motor activity was measured in microprocessor-based motor activity arenas (closed gray PVC cylinders with a height of 39 cm and a diameter of 31 cm). Each arena was placed on an infrared LED (8×8 LEDs) lit box (white PVC squared box; 40×40 cm^2; height 12.5 cm. An infrared-sensitive tube camera and a white light source were mounted to the ceiling above the observation chamber to track the animal. The total distance traveled (cm) was recorded and analyzed using the Noldus Ethovision XT Video Tracking System (Version 7.0.418; Noldus, Wageningen, The Netherlands). The intensity of the light within the activity cages (measured in the centre at the level of the floor) ranged between 4 and 8 LUX.
The rats were pretreated with test compound or vehicle at 60 min before the start of the activity recordings and placed into individual cages. The rats were challenged with JNJ-42153605 (3-(cyclopropylmethyl)-7-(4-phenylpiperidin-1-yl)-8-(trifluoromethyl)-[1,2,4]triazolo[4,3-a]pyridine; WO2010/130424; Cid et al. J. Med. Chem. 2012, 55, 8770-8789) (20 mg/kg, i.v.) 30 min before the start of the activity recording combined with scopolamine (0.16 mg/kg, i.v.) just before the start of the activity measurements. Immediately after the injection of scopolamine, the rats were placed into the activity monitors and total distance traveled over the first 30 min was measured.
Solvent-pretreated Control Rats.
Animals receiving the combination of JNJ-42153605 and scopolamine (n=433) almost always traveled a distance of less than 1500 cm (<1500 cm) (only 2.5% of the control rats traveled a distance of more than 1500 cm (>1500 cm)). On the other hand, animals challenged with scopolamine alone (n=215) always traveled a total distance of more than 1500 cm (>1500 cm) and almost always (in 95.8% of the rats) a distance of more than 4400 cm (>4400 cm). […] For reversal of the inhibitory effect of JNJ-42153605 on the scopolamine-induced hyperlocomotion, the following all-or-none criteria were adopted: (1) reversal: total distance>1500 cm.

Cc1ncc(-c2cnn3c2C(=O)N(c2ccc(C(F)(F)F)c(Cl)c2)C[C@@H]3C)[nH]1 [Compound 27]
ED50 (Wiga Wistar rats): 0.2 mg/kg | ED50 (rats; criterion for reversal: total distance >1500 cm, read-out: ED50 SCOP JNJ-42153605): > 2.5 mg/kg | ED50 (rats; more sensitive criterion for reversal: total distance >1300 cm, read-out: ED50 SCOP JNJ-42153605, more sensitive criterion): 1.25 mg/kg

Reference: patent publication US10072014B2 (Janssen Pharmaceutica NV, priority 2014, dated 2018)
